Data from patent publication US20220106301A1, “ACETAMIDO-PHENYLBENZAMIDE DERIVATIVES AND METHODS OF USING THE SAME” (Athenex, Inc., priority 2020, published 2022).

Target: CYP3A4 (Homo sapiens, UniProt P08684)
Assay: Determination of CYP3A4 inhibitory activity (human liver microsome, Luciferin-IPA)
Settings: CYP3A4 IC50 (nM), 37° C. 11 minutes
Description: The standard final Compound concentrations were 37, 111, 333, 1000, and 3000 nM. 12.5 μL of the Compound dilutions were transferred to a white 96-well plate. […] 25 μL of the buffer was added to each well. The plates were incubated at 37° C. for 11 minutes. 50 μL of luciferin detection reagent (Promega V9002) was added and the plates were incubated at room temperature for 5 minutes. The plate was read with a luminometer.
The dose-response curve and IC50 were obtained by fitting data to nonlinear regression model using GraphPad Prism software (v6.0).

CYP3A4, sequence (P08684 whole entry): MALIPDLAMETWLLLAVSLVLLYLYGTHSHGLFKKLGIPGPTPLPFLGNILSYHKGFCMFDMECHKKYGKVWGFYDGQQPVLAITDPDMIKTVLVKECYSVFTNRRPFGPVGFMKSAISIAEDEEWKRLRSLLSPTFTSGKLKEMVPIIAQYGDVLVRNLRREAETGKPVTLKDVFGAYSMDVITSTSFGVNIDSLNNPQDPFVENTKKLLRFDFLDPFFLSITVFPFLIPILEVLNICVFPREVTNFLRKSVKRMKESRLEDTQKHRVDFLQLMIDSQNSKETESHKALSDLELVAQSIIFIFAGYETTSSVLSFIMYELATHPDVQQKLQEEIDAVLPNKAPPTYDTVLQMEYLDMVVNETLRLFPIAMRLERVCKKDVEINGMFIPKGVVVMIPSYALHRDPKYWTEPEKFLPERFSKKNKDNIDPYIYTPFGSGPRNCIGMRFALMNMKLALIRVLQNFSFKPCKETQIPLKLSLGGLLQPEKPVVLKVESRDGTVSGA

With `COc1cc(NC(=O)c2cc(=O)c3ccccc3o2)c(C(=O)Nc2ccc(CCN(C)Cc3ccc(-c4cscn4)cc3)cc2)cc1OC` [Compound 112] the IC50 was > 1000 nM.
`COc1cc(NC(=O)c2cnc3ccccc3n2)c(C(=O)Nc2ccc(CCN(Cc3ccc4c(cnn4C)c3)Cc3ccc4c(cnn4C)c3)cc2)cc1OC` [Compound 167] was tested, and the IC50 was > 1000 nM.
`COc1cc(NC(=O)c2cc(=O)c3ccccc3o2)c(C(=O)Nc2ccc(CCN(Cc3ccc4c(cnn4C)c3)Cc3cncs3)cc2)cc1OC` [Compound 140] was tested, and the IC50 was > 1000 nM.
With `COc1cc(NC(=O)c2cc(=O)c3ccccc3o2)c(C(=O)Nc2ccc(CCN(Cc3cccc(-n4ccnc4)c3)Cc3ccc4c(c3)nnn4C)cc2)cc1OC` [Compound 50] the IC50 was 100 to 250 nM.
In the case of `COc1cc(NC(=O)c2cc(=O)c3ccccc3o2)c(C(=O)Nc2ccc(CCN(Cc3cncc(-c4ccccc4)c3)Cc3ccc4c(cnn4C)c3)cc2)cc1OC` [Compound 254], the IC50 was > 1000 nM.
For `COc1cc(NC(=O)c2cc(=O)c3ccccc3o2)c(C(=O)Nc2ccc(CCN(Cc3cccnc3)Cc3ccc4c(c3)n(C)c(=O)n4C)cc2)cc1OC` [Compound 44], the IC50 was 100 to 250 nM.
With `COc1cc(NC(=O)c2cc(=O)c3ccccc3o2)c(C(=O)Nc2ccc(CCN(Cc3ccc(-c4ccncc4)cc3)Cc3ccc4cnn(C)c4c3)cc2)cc1OC` [Compound 187] the IC50 was > 1000 nM.
`COc1cncc(CN(CCc2ccc(NC(=O)c3cc(OC)c(OC)cc3NC(=O)c3cnc4ccccc4c3)cc2)Cc2ccc3c(cnn3C)c2)c1` [Compound 51] gave an IC50 of 250 to 500 nM.
For `CCN(CCc1ccc(NC(=O)c2cc(OC)c(OC)cc2NC(=O)c2cc(=O)c3ccccc3o2)cc1)Cc1cccc(-n2cnc(C)c2)c1` [Compound 107], the IC50 was 100 to 250 nM.
For `CCn1ncc2cc(CN(C)CCc3ccc(NC(=O)c4cc(OC)c(OC)cc4NC(=O)c4cc(=O)c5ccccc5o4)cc3)ccc21` [Compound 191], the IC50 was > 1000 nM.
`CCN(CCc1ccc(NC(=O)c2cc(OC)c(OC)cc2NC(=O)c2cc(=O)c3ccccc3o2)cc1)Cc1ccc2c(c1)n(C)c(=O)n2C` [Compound 161] was tested, and the IC50 was > 1000 nM.
For `COc1cncc(CN(CCc2ccc(NC(=O)c3cc(OC)c(OC)cc3NC(=O)c3cc(=O)c4ccccc4o3)cc2)Cc2cnc(-c3ccccc3F)nc2)c1` [Compound 230], the IC50 was 100 to 250 nM.
With `CCn1ncc2cc(CN(CCc3ccc(NC(=O)c4cc(OC)c(OC)cc4NC(=O)C4CC(=O)c5ccccc5O4)cc3)Cc3cccc(-n4ccnc4)c3)ccc21` (stereo not drawn) [Compound 205] the IC50 was 500 to 1000 nM.
For `COc1cc(NC(=O)c2cc(=O)c3ccccc3o2)c(C(=O)Nc2ccc(CCN(C)C(=O)c3cccc(-c4cccnc4)c3)cc2)cc1OC` [Compound 124], the IC50 was 250 to 500 nM.
`COc1cncc(CN(CCc2ccc(NC(=O)c3cc(OC)c(OC)cc3NC(=O)c3cc(=O)c4ccc(C)cc4o3)cc2)Cc2ccc3c(cnn3C)c2)c1` [Compound 222] showed an IC50 of 100 to 250 nM.
`COc1cnccc1CN(CCc1ccc(NC(=O)c2cc(OC)c(OC)cc2NC(=O)c2cc(=O)c3ccccc3o2)cc1)Cc1ccc2c(cnn2C)c1` [Compound 49] gave an IC50 of 250 to 500 nM.
In the case of `COc1cc(NC(=O)c2cc(=O)c3ccccc3o2)c(C(=O)Nc2ccc(CCNCc3ccc4c(cnn4C)c3)cc2)cc1OC` [Compound 139], the IC50 was > 1000 nM.
In the case of `COc1cc(NC(=O)c2cnc3ccccc3c2)c(C(=O)Nc2ccc(CCN(Cc3cccc(-n4ccnc4)c3)Cc3ccc4c(cnn4C)c3)cc2)cc1OC` [Compound 146], the IC50 was 500 to 1000 nM.
`CCn1cncc1CN(CCc1ccc(NC(=O)c2cc(OC)c(OC)cc2NC(=O)c2cnc3ccccc3n2)cc1)Cc1ccc2c(cnn2C)c1` [Compound 34] showed an IC50 of 100 to 250 nM.
With `COc1cncc(CN(CCc2ccc(NC(=O)c3cc(OC)c(OC)cc3NC(=O)c3cc(=O)c4cc(C)ccc4o3)cc2)Cc2ccc3c(cnn3C)c2)c1` [Compound 52] the IC50 was 250 to 500 nM.
In the case of `CCOc1cc(C(=O)Nc2ccc(CCN(C)Cc3ccc4c(cnn4C)c3)cc2)c(NC(=O)c2cc(=O)c3ccccc3o2)cc1OC` [Compound 111], the IC50 was > 1000 nM.
`COc1cc(NC(=O)c2cc(=O)c3ccccc3o2)c(C(=O)Nc2ccc(CCN(C)Cc3ccc4c(c3)CNN4C)cc2)cc1OC` [Compound 12] was tested, and the IC50 was > 1000 nM.
In the case of `COc1cc(NC(=O)c2cc(=O)c3ccccc3o2)c(C(=O)Nc2ccc(CCN(Cc3ccc(-n4ccnc4)cc3)Cc3ccc4cnn(C)c4c3)cc2)cc1OC` [Compound 186], the IC50 was 100 to 250 nM.
Work on `COc1cc(NC(=O)c2cc(=O)c3ccccc3o2)c(C(=O)Nc2ccc(CCN(C)Cc3cncn3C)cc2)cc1OC` [Compound 86] yielded an IC50 of 250 to 500 nM.
For `COc1cc(NC(=O)c2cc(=O)c3cc(C)ccc3o2)c(C(=O)Nc2ccc(CCN(Cc3cncc(-c4ccccc4)c3)Cc3ccc4c(cnn4C)c3)cc2)cc1OC` [Compound 255], the IC50 was > 1000 nM.
In the case of `COc1cc(NC(=O)c2cc(=O)c3ccccc3o2)c(C(=O)Nc2ccc(CCN(Cc3cccnc3)Cc3ccc4cnn(C)c4c3)cc2)cc1OC` [Compound 42], the IC50 was 250 to 500 nM.
With `C#Cc1cccc(CN(C)CCc2ccc(NC(=O)c3cc(OC)c(OC)cc3NC(=O)c3cc(=O)c4ccccc4o3)cc2)c1` [Compound 116] the IC50 was > 1000 nM.
`COc1cc(NC(=O)c2cc(=O)c3ccccc3o2)c(C(=O)Nc2ccc(CCN(Cc3cccc(-n4ccnc4)c3)Cc3ccc4cnn(C)c4c3)cc2)cc1OC` [Compound 177] was tested, and the IC50 was < 100 nM.
For `Cn1ncc2cc(CN(CCc3ccc(NC(=O)c4ccc(C(=O)OCc5cncs5)cc4NC(=O)c4cc(=O)c5ccccc5o4)cc3)Cc3ccc4c(cnn4C)c3)ccc21` [Compound 266], the IC50 was > 1000 nM.
With `COc1cc(NC(=O)c2cc(=O)c3ccccc3o2)c(C(=O)Nc2ccc(CCN(Cc3ccc4c(c3)CCO4)Cc3ccc4c(cnn4C)c3)cc2)cc1OC` [Compound 163] the IC50 was > 1000 nM.
Work on `CCCN(CCc1ccc(NC(=O)c2cc(OC)c(OC)cc2NC(=O)c2cc(=O)c3ccccc3o2)cc1)Cc1ccc(-n2ccnc2)c(OC)c1` [Compound 91] yielded an IC50 of 100 to 250 nM.
`COc1cc(NC(=O)c2cc(=O)c3cc(C)ccc3o2)c(C(=O)Nc2ccc(CCN(Cc3cncc(C)c3)Cc3ccc4c(cnn4C)c3)cc2)cc1OC` [Compound 77] showed an IC50 of 250 to 500 nM.
In the case of `COc1cc2c(cc1OC)CN(CCc1ccc(NC(=O)c3ccc(C(=O)OCc4ccncc4)cc3NC(=O)c3cc(=O)c4ccccc4o3)cc1)CC2` [Compound 81], the IC50 was > 1000 nM.
In the case of `CCN(CCc1ccc(NC(=O)c2cc(OC)c(OC)cc2NC(=O)c2cc(=O)c3ccccc3o2)cc1)Cc1cccc(OCCn2ccnc2)c1` [Compound 130], the IC50 was < 100 nM.
With `COC(=O)c1ccc(C(=O)Nc2ccc(CCN(Cc3ccc4c(cnn4C)c3)Cc3ccc4c(cnn4C)c3)cc2)c(NC(=O)c2cc(=O)c3ccccc3o2)c1` [Compound 257] the IC50 was > 1000 nM.
For `COc1cc(NC(=O)c2cc(=O)c3ccccc3o2)c(C(=O)Nc2ccc(CCN(Cc3ccc4c(cnn4C)c3)Cc3cncn3C)cc2)cc1OC` [Compound 21], the IC50 was < 100 nM.
For `COc1cc(NC(=O)c2cc(=O)c3ccccc3o2)c(C(=O)Nc2ccc(CCN(Cc3ccc4c(cnn4C)c3)C(=O)OC(C)(C)C)cc2)cc1OC` [Compound 231], the IC50 was > 1000 nM.
`COCCOc1cncc(CN(CCc2ccc(NC(=O)c3cc(OC)c(OC)cc3NC(=O)c3cc(=O)c4cc(C)ccc4o3)cc2)Cc2ccc3c(cnn3C)c2)c1` [Compound 60] gave an IC50 of 250 to 500 nM.
For `COc1cc(NC(=O)c2cc(=O)c3ccccc3o2)c(C(=O)Nc2ccc(CCN(Cc3ccc(-n4ccnc4C)cc3)Cc3cccc(-n4ccnc4)c3)cc2)cc1OC` [Compound 243], the IC50 was > 1000 nM.
Work on `COc1cc(NC(=O)c2cc(=O)c3ccccc3o2)c(C(=O)Nc2ccc(CCN(C)Cc3cccc(-c4cccnc4)c3)cc2)cc1OC` [Compound 7] yielded an IC50 of 500 to 1000 nM.
Work on `COCCOc1cncc(CN(CCc2ccc(NC(=O)c3cc(OC)c(OC)cc3NC(=O)c3cnc4ccccc4c3)cc2)Cc2ccc3c(cnn3C)c2)c1` [Compound 61] yielded an IC50 of 250 to 500 nM.
With `CCN(CCc1ccc(NC(=O)c2cc(OC)c(OC)cc2NC(=O)c2cc(=O)c3ccccc3o2)cc1)Cc1ccc(-n2cncn2)cc1` [Compound 20] the IC50 was 100 to 250 nM.
In the case of `COc1ccc(CN(CCc2ccc(NC(=O)c3cc(OC)c(OC)cc3NC(=O)c3cc(=O)c4ccccc4o3)cc2)Cc2cncn2C)cc1OC` [Compound 147], the IC50 was < 100 nM.
`COc1cc(NC(=O)c2cc(=O)c3ccccc3o2)c(C(=O)Nc2ccc(CCN(C)C(=O)c3ccc(-n4ccnc4)cc3)cc2)cc1OC` [Compound 123] was tested, and the IC50 was < 100 nM.
`COc1cc(NC(=O)c2cc(=O)c3ccccc3o2)c(C(=O)Nc2ccc(CCN(C)Cc3ccc(-n4ccnc4)cc3)cc2)cc1OC` [Compound 1] gave an IC50 of 100 to 250 nM.
With `COc1cc(NC(=O)c2cc(=O)c3ccccc3o2)c(C(=O)Nc2ccc(CCN(C)Cc3ccc(-c4cncs4)cc3)cc2)cc1OC` [Compound 118] the IC50 was 250 to 500 nM.
Work on `COc1cc(NC(=O)c2cc(=O)c3ccccc3o2)c(C(=O)Nc2ccc(CCN(Cc3cccc(-n4ccnc4)c3)Cc3cccc(-n4ccnc4C)c3)cc2)cc1OC` [Compound 245] yielded an IC50 of 250 to 500 nM.
In the case of `COc1cc(NC(=O)c2cc(=O)c3ccccc3o2)c(C(=O)Nc2ccc(CCN(Cc3ccc(-c4cccnc4)cc3)Cc3ccc4c(cnn4C)c3)cc2)cc1OC` [Compound 189], the IC50 was > 1000 nM.
For `COc1cc(NC(=O)c2cc(=O)c3ccccc3o2)c(C(=O)Nc2ccc(CCN(CC3=CNCN3C)Cc3ccc4cnn(C)c4c3)cc2)cc1OC` [Compound 35], the IC50 was > 1000 nM.
`COc1cc(NC(=O)c2cc(=O)c3ccccc3o2)c(C(=O)Nc2ccc(CCN(C)Cc3ccc(-n4ccnc4)c(OC)c3)cc2)cc1OC` [Compound 87] gave an IC50 of 100 to 250 nM.
For `CN(CCc1ccc(NC(=O)c2ccc(C(=O)OCc3cccnc3)cc2NC(=O)c2cc(=O)c3ccccc3o2)cc1)Cc1ccc2c(cnn2C)c1` [Compound 84], the IC50 was > 1000 nM.
`COc1cc(NC(=O)c2cc(=O)c3ccccc3o2)c(C(=O)Nc2ccc(CCN(C)Cc3cccc(-c4cncs4)c3)cc2)cc1OC` [Compound 15] was tested, and the IC50 was 500 to 1000 nM.
For `COc1cc(NC(=O)c2cc(=O)c3ccccc3o2)c(C(=O)Nc2ccc(CCN(Cc3ccc(-n4ccnc4C)cc3)Cc3ccc4c(cnn4C)c3)cc2)cc1OC` [Compound 241], the IC50 was > 1000 nM.
For `CCN(CCc1ccc(NC(=O)c2cc(OC)c(OC)cc2NC(=O)c2cc(=O)c3ccccc3o2)cc1)Cc1ccc2cn[nH]c2c1` [Compound 185], the IC50 was > 1000 nM.
